Experimental data from patent publication US20240307283A1, “COMPOSITIONS AND METHODS FOR DECREASING PIGMENTATION” (The General Hospital Corporation, priority 2021, published 2024).

Assays:
[1] = tested on: primary melanocytes; experiment: Cell viability of primary melanocytes, different doses; assay type: cell-based, human; conditions: FIG. 10C
Protocol: Cell viability assay: Human melanoma cell lines and isolated primary cultured human melanocytes were propagated and tested in early passage (Passages 7 to 9). The effects of NNT inhibitors (2,3BD, DCC, and Palmitoyl coenzyme A lithium salt) on cell viability were evaluated by the CellTiter-Glo Luminescent Cell Viability Assay (Promega, #G7570) and measurement of luminescence was performed on an EnVision 2104 Multilabel Reader (PerkinElmer). Human melanoma cell lines and primary melanocytes were plated on 96-well white plates (10,000 cells/well) and were treated with the NNT inhibitors at the indicated concentrations for 24 h.

[2] = tested on: human skin explants; experiment: Pigmentation of human skin explants with topical NNT inhibitors
[3] = molecular target: T1, NNT (Homo sapiens, UniProt Q13423); experiment: GSH/GSSG ratio (indirect endpoint of NNT enzyme activity) in primary melanocytes; assay type: cell-based; set-up: endogenous in cells; host or cells: primary human melanocytes (isolated from neonatal foreskins); conditions: different doses, 24 hours
T1 sequence (Q13423 44-1086): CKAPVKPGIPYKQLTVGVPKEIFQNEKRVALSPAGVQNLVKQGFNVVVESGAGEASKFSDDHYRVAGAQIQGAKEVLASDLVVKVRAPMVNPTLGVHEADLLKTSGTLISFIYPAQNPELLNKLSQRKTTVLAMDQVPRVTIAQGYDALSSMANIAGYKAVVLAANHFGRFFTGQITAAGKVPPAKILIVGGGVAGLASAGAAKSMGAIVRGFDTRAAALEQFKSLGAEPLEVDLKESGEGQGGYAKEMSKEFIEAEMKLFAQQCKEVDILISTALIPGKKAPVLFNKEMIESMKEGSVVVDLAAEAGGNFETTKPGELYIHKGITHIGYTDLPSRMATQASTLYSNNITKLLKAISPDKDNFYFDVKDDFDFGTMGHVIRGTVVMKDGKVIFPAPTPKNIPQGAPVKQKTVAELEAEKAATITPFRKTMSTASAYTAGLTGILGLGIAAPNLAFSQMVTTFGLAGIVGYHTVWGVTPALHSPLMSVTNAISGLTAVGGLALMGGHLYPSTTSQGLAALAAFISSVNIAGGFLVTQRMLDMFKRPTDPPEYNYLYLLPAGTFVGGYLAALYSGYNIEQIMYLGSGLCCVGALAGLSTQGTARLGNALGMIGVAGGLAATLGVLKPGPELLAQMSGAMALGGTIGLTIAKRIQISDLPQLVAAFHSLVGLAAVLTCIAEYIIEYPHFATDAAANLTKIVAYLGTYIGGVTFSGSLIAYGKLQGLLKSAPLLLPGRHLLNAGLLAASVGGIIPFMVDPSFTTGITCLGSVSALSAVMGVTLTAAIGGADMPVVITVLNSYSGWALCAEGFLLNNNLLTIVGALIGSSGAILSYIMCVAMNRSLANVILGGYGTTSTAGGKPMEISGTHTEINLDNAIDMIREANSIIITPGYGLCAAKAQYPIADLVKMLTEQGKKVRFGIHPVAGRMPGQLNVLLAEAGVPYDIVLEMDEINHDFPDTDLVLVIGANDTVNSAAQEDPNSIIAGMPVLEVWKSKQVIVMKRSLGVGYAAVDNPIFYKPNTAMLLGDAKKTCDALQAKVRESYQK
Protocol: Glutathione measurements: Cell lysates were prepared from equal numbers of cells after 24 h of DCC or 2,3BD treatment, following the manufacturer's protocols. Seventy-two h post siRNA treatment or overexpression of NNT and their corresponding controls, glutathione levels were determined using the GSH/GSSG-Glo assay (Promega, #V6611) and luminescence was measured using an EnVision 2104 Multilabel Reader (PerkinElmer).

[4] = tested on: Zebrafish overexpressing NNT (NNT OE); experiment: 2,3BD treatment of zebrafish overexpressing NNT; assay type: in vivo; conditions: 100 μM for 24 hours, FIG. 11C
Protocol: The human NNT gene was cloned into the MiniCoopR expression plasmid to allow melanocyte-specific overexpression of NNT (Ceol et al., 2011). The mcr:NNT plasmid was injected into Tubingen zebrafish embryos at the single cell stage and incorporated into the genome through the use of Tol2 transgenesis. Larvae were raised for 5 days and then at least three images were obtained and quantified using a Nikon SMZ18 Stereomicroscope. At least 5 zebrafish embryos of each group were analyzed after 5 days using the […] software enabling pixel-based color quantification. Wildtype Tübingen zebrafish were placed in a 24 well plate at 72 hours post-fertilization, with 10 larvae per well for a total twenty larvae per condition. Larvae were treated for 24 hours with either 2,3BD (1 μM, 10 μM, 100 μM, 1 mM; Sigma Aldrich, #B85307), DCC (1 μM, 10 μM, 50 μM, 100 μM; Sigma Aldrich, #D80002), or DMSO (1:500) in E3 embryo medium. At 4 days post fertilization, larvae were imaged using a Nikon SMZ18 Stereomicroscope. Melanocytes from at least 5 zebrafish embryos of each group for each experiment were analyzed using the FIJI software enabling pixel-based color quantification.

[5] = tested on: zebrafish melanocytes; experiment: Chemical treatment of zebrafish, melanocytic brightness; assay type: in vivo; conditions: 24 hours, 100 μM 2,3BD or 50 μM DCC
Protocol: Wildtype Tübingen zebrafish were placed in a 24 well plate at 72 hours post-fertilization, with 10 larvae per well for a total twenty larvae per condition. Larvae were treated for 24 hours with either 2,3BD (1 μM, 10 μM, 100 μM, 1 mM; Sigma Aldrich, #B85307), DCC (1 μM, 10 μM, 50 μM, 100 μM; Sigma Aldrich, #D80002), or DMSO (1:500) in E3 embryo medium. At 4 days post fertilization, larvae were imaged using a Nikon SMZ18 Stereomicroscope. Melanocytes from at least 5 zebrafish embryos of each group for each experiment were analyzed using the FIJI software enabling pixel-based color quantification.

**Q.** How did the cell viability ([1]; different doses, relative to vehicle) turn out when `CC(=O)C(C)=O` [2,3BD, 2,3-Butanedione] was run?
**A.** no impacts on cell viability

**Q.** And the in vitro toxicity ([1]; doses up, primary melanocytes)?
**A.** no significant toxicity

**Q.** What about the “melanin by Fontana-Masson staining” value ([2]; 2,3BD treated skin, FIGS. 3Ei and 10F) of the same molecule?
**A.** increased melanin

**Q.** What about the “cell damage or inflammation by H&E staining” value ([2]; FIG. 3Eii) of the same molecule?
**A.** no obvious cell damage or inflammation

**Q.** What about the skin pigmentation ([2]; abdominal skin, phototype 1-2, single topical treatment 1M or 11M, after 5 days) of the same molecule?
**A.** strong induction of pigmentation

**Q.** What about the skin pigmentation ([2]; daily application of 50 mM, skin type 3-4, after 5 days) of the same molecule?
**A.** significantly increased pigmentation

**Q.** And the GSH/GSSG ratio [3]?
**A.** decreased GSH/GSSG ratios

**Q.** What about the “melanocytic pigmentation of NNT overexpressing fish” value [4] of the same molecule?
**A.** prevented the NNT OE-induced decrease in melanocytic pigmentation

**Q.** What about the “darkening of zebrafish embryos (melanocytic brightness)” value [5] of the same molecule?
**A.** significant darkening
